Laboratory results reported in BindingDB's records for doi:10.1021/acs.jmedchem.9b01509 (University of Chemistry and Technology Prague, 2020).

Biological target: Sarcoplasmic/endoplasmic reticulum calcium ATPase 1 (Oryctolagus cuniculus, UniProt P04191)
Test: Inhibition of rabbit SERCA1a preincubated for 10 mins followed by addition of ATP and measured after 10 mins by colorimetric method

Chain of Sarcoplasmic/endoplasmic reticulum calcium ATPase 1 (P04191 whole entry): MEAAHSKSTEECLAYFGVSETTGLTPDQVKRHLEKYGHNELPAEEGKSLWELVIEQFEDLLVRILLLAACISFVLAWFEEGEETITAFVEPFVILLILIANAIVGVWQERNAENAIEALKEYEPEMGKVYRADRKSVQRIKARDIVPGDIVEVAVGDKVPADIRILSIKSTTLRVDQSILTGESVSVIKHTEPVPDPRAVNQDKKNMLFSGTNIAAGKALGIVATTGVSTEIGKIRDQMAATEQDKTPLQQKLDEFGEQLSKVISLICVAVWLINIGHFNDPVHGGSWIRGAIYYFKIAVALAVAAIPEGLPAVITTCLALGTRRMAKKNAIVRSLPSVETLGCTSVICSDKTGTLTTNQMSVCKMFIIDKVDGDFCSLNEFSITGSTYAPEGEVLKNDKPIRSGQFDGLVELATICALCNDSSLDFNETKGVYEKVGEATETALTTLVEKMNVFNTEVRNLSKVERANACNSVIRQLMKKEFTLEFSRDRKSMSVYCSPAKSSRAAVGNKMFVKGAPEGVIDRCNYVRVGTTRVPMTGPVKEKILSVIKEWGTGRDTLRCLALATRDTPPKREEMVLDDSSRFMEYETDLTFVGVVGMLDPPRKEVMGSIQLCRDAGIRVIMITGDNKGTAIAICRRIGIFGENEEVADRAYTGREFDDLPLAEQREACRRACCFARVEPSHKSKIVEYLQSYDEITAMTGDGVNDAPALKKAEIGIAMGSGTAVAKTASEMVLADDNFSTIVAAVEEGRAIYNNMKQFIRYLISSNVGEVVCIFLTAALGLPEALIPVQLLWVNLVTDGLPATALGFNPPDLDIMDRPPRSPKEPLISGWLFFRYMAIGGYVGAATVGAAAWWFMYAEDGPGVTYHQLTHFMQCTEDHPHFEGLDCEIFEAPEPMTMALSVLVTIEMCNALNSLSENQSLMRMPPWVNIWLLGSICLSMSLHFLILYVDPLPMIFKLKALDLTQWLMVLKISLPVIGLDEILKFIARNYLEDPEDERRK

IC50: 15 µM
SMILES: CC[C@H](C)[C@H]1O[C@]2(CC[C@@H]1C)C[C@@H]1C[C@@H](C/C=C(\C)[C@@H](O[C@H]3C[C@H](OC)[C@@H](O[C@H]4C[C@H](OC)[C@@H](O)[C@H](C)O4)[C@H](C)O3)[C@@H](C)/C=C/C=C3\CO[C@@H]4[C@H](O)C(C)=C[C@@H](C(=O)O1)[C@]34O)O2 [ABAMECTIN]
